Source: patent US20240196946A1, “METABOLICALLY MODIFIED VANILLA BEANS AND METHODS FOR PRODUCING SAME” (VANILLA TECHNOLOGIES LTD., priority 2021, published 2024)

Experiments:
Vanilla planifolia beans = assay: GC-MS headspace (SPME) analysis of treated vanilla beans (Example 2); settings: for Phenylethyl Alcohol and 3-Phenyl-2-propenoic acid methyl ester / compounds giving a vinegar anisic and creamy flavor (acetic acid, creosol and 2,3-Butanediol): FIG. 3E, glutathione results not shown; for vanillin levels: GC-MS headspace vs control, FIG. 3A-3E; for constituents delivering vinegar anisic and floral flavors (acetic acid, creosol and acetoin): 3C
Excerpt: The treated vanilla beans were further analyzed by Gas Chromatography-Mass Spectrometry (GC-MS) in headspace mode with solid phase micro extraction (SPME) fiber. Compound identification was done by retention index and mass spectra. Compound flavor was obtained by searching a compound name in the following databases: https://pubchem.ncbi.nlm.nih.gov/ and […].com/.

vanilla beans = assay: Vanillin content analysis by spectrophotometry of treated, cured vanilla beans; set-up: species or system Vanilla planifolia; settings: relative to water control; FIG. 1; concentrations as in Table 1
Protocol: Target chemical compounds (set forth in table 1 below) were dissolved in water and pH adjusted to pH-7. Green beans cut into 1 cm pieces were placed in a 50 ml tube or intact beans placed in a bucket. A 10 ml solution containing one of the compounds indicated in Table 1 dissolved in water and 0.1% of each of the four surfactants tween 20, tween 80, span 20, and span 80 was added per each bean. The beans were incubated with the solution for 0.5-36 hours (e.g. overnight) at room temperature. The solution was the filtered out, the beans washed, and placed in a drying chamber with controlled temperature and humidity conditions to provide killing and curing as known in the art. The beans were weighted daily and at a 25-30% of their original weight, subjected to vanillin content analysis by spectrophotometry, as well as to a flavor test by a sensory panel.

Molecule | Phenylethyl Alcohol and 3-Phenyl-2-propenoic acid methyl ester (Vanilla planifolia beans) | compounds giving a vinegar anisic and creamy flavor (acetic acid, creosol and 2,3-Butanediol) (Vanilla planifolia beans) | vanillin levels (Vanilla planifolia beans) | vanillin content (abundance of vanillin) (vanilla beans) | acetic acid, 2,3-Butanediol and acetoin (Vanilla planifolia beans; FIG. 3D) | level of compounds giving anisic and floral flavors (creosol and benzeneacetaldehyde) (Vanilla planifolia beans; FIG. 3D) | levels of constituents resulting in a nutty flavor (3-hydroxy-Benzaldehyde) (Vanilla planifolia beans; FIG. 3B) | constituents delivering vinegar anisic and floral flavors (acetic acid, creosol and acetoin) (Vanilla planifolia beans; FIG. 3B) | levels of constituents delivering a nutty coffee flavor (3-hydroxy-Benzaldehyde and 2-methyl-Butanal) (Vanilla planifolia beans; FIG. 3C)
N[C@@H](CCC(=O)N[C@@H](CS)C(=O)NCC(=O)O)C(=O)O [L- glutathione] | induced the formation | reduced abundance | increase | reduced vanillin content |  |  |  |  | 
N[C@@H](Cc1ccccc1)C(=O)O [L-Phenylalanine] | induced the formation | reduced abundance | increase | reduced vanillin content |  |  |  |  | 
CC(=O)C(=O)O [Pyruvic acid] |  |  | increase |  | formation | decreasing |  |  | 
O=C(O)c1ccccc1O [Salicylic acid] |  |  | marked increase | large increase |  |  | increased | decrease | 
Chitosan |  |  | milder increase |  |  |  |  | decrease | increased
